Data reported in ChEMBL document CHEMBL2375302, “Synthesis, antimicrobial, antiquorum-sensing, antitumor and cytotoxic activities of new series of fused [1,3,4]thiadiazoles” (Eur J Med Chem, 2013).

How the values were obtained:
K562 = experiment: Growth inhibition of human K562 cells at 10 uM after 48 hrs by coulter counter analysis relative to control; assay type: functional; conditions: K562, 48 h, read-out: GI
RPMI-8226 = experiment: Growth inhibition of human RPMI8226 cells at 10 uM after 48 hrs by coulter counter analysis relative to control; assay type: functional; conditions: RPMI-8226, 48 h, read-out: GI
IGROV-1 = experiment: Growth inhibition of human IGROV1 cells at 10 uM after 48 hrs by coulter counter analysis relative to control; assay type: functional; conditions: IGROV-1, 48 h, read-out: GI
SR = experiment: Growth inhibition of human SR cells at 10 uM after 48 hrs by coulter counter analysis relative to control; assay type: functional; conditions: read-out: GI
SF-539 = experiment: Growth inhibition of human SF539 cells at 10 uM after 48 hrs by coulter counter analysis relative to control; assay type: functional; conditions: SF-539, 48 h, read-out: GI
M14 = experiment: Growth inhibition of human M14 cells at 10 uM after 48 hrs by coulter counter analysis relative to control; assay type: functional; conditions: M14, 48 h, read-out: GI
SF-295 = experiment: Growth inhibition of human SF295 cells at 10 uM after 48 hrs by coulter counter analysis relative to control; assay type: functional; conditions: SF-295, 48 h, read-out: GI
UACC-62 = experiment: Growth inhibition of human UACC62 cells at 10 uM after 48 hrs by coulter counter analysis relative to control; assay type: functional; conditions: UACC-62, 48 h, read-out: GI
SK-MEL-28 = experiment: Growth inhibition of human SK-MEL-28 cells at 10 uM after 48 hrs by coulter counter analysis relative to control; assay type: functional; conditions: SK-MEL-28, 48 h, read-out: GI
NCI-H226 = experiment: Growth inhibition of human NCI-H226 cells at 10 uM after 48 hrs by coulter counter analysis relative to control; assay type: functional; conditions: NCI-H226, 48 h, read-out: GI
BT-549 = experiment: Growth inhibition of human BT549 cells at 10 uM after 48 hrs by coulter counter analysis relative to control; assay type: functional; conditions: BT-549, 48 h, read-out: GI
CCRF-CEM = experiment: Growth inhibition of human CCRF-CEM cells at 10 uM after 48 hrs by coulter counter analysis relative to control; assay type: functional; conditions: read-out: GI
T47D = experiment: Growth inhibition of human T47D cells at 10 uM after 48 hrs by coulter counter analysis relative to control; assay type: functional; conditions: read-out: GI
786-0 = experiment: Growth inhibition of human 786-0 cells at 10 uM after 48 hrs by coulter counter analysis relative to control; assay type: functional; conditions: 786-0, 48 h, read-out: GI
HT-29 = experiment: Growth inhibition of human HT-29 cells at 10 uM after 48 hrs by coulter counter analysis relative to control; assay type: functional; conditions: HT-29, 48 h, read-out: GI
[1] = Toxicity against brine shrimp larvae assessed as mortality at 500 ug/mL after 24 hrs by binocular microscopic analysis relative to control; assay type: organism-based; conditions: artemia salina, in vivo
HCT-116 = experiment: Growth inhibition of human HCT116 cells at 10 uM after 48 hrs by coulter counter analysis relative to control; assay type: functional; conditions: HCT-116, 48 h, read-out: GI
MDA-MB-468 = experiment: Growth inhibition of human MDA-MB-468 cells at 10 uM after 48 hrs by coulter counter analysis relative to control; assay type: functional; conditions: MDA-MB-468, 48 h, read-out: GI
SK-MEL-5 = experiment: Growth inhibition of human SK-MEL-5 cells at 10 uM after 48 hrs by coulter counter analysis relative to control; assay type: functional; conditions: SK-MEL-5, 48 h, read-out: GI
CAKI-1 = experiment: Growth inhibition of human CAKI-1 cells at 10 uM after 48 hrs by coulter counter analysis relative to control; assay type: functional; conditions: CAKI-1, 48 h, read-out: GI
SK-MEL-2 = experiment: Growth inhibition of human SK-MEL-2 cells at 10 uM after 48 hrs by coulter counter analysis relative to control; assay type: functional; conditions: SK-MEL-2, 48 h, read-out: GI
OVCAR-8 = experiment: Growth inhibition of human OVCAR8 cells at 10 uM after 48 hrs by coulter counter analysis relative to control; assay type: functional; conditions: OVCAR-8, 48 h, read-out: GI
Bacillus cereus = experiment: Antibacterial activity against Bacillus cereus at 5 mg/mL after 24 hrs; assay type: functional; conditions: read-out: DIZ
Escherichia coli = experiment: Antibacterial activity against Escherichia coli at 5 mg/mL after 24 hrs; assay type: functional; conditions: read-out: DIZ
HOP-62 = experiment: Growth inhibition of human HOP62 cells at 10 uM after 48 hrs by coulter counter analysis relative to control; assay type: functional; conditions: HOP-62, 48 h, read-out: GI
MOLT-4 = experiment: Growth inhibition of human MOLT4 cells at 10 uM after 48 hrs by coulter counter analysis relative to control; assay type: functional; conditions: MOLT-4, 48 h, read-out: GI
PC-3 = experiment: Growth inhibition of human PC3 cells at 10 uM after 48 hrs by coulter counter analysis relative to control; assay type: functional; conditions: PC-3, 48 h, read-out: GI
[2] = Growth inhibition of human HCC2998 cells at 10 uM after 48 hrs by coulter counter analysis relative to control; assay type: functional; conditions: HCC 2998, 48 h, read-out: GI
OVCAR-4 = experiment: Growth inhibition of human OVCAR4 cells at 10 uM after 48 hrs by coulter counter analysis relative to control; assay type: functional; conditions: OVCAR-4, 48 h, read-out: GI
A549 = experiment: Growth inhibition of human A549 cells at 10 uM after 48 hrs by coulter counter analysis relative to control; assay type: functional; conditions: A549, 48 h, read-out: GI

CCOC(=O)C1C(=O)N=C2SC(S(N)(=O)=O)=NN2C1c1ccc(N(C)C)cc1 (stereo not given)
inhibition of growth at 10 µM (K562): < 10% | inhibition of growth at 10 µM (RPMI-8226): < 10% | inhibition of growth at 10 µM (IGROV-1): < 10% | inhibition of growth at 10 µM (SR): 10.3% | inhibition of growth at 10 µM (SF-539): < 10% | inhibition of growth at 10 µM (M14): < 10% | inhibition of growth at 10 µM (SF-295): < 10% | inhibition of growth at 10 µM (UACC-62): 13.7% | inhibition of growth at 10 µM (SK-MEL-28): < 10% | inhibition of growth at 10 µM (NCI-H226): < 10% | inhibition of growth at 10 µM (BT-549): < 10% | inhibition of growth at 10 µM (CCRF-CEM): < 10% | inhibition of growth at 10 µM (T47D): < 10% | inhibition of growth at 10 µM (786-0): < 10% | inhibition of growth at 10 µM (HT-29): < 10% | mortality at 24 h, 500 ug/mL [1]: 93.3% | inhibition of growth at 10 µM (HCT-116): < 10% | inhibition of growth at 10 µM (MDA-MB-468): < 10% | inhibition of growth at 10 µM (SK-MEL-5): < 10% | inhibition of growth at 10 µM (CAKI-1): 21.1% | inhibition of growth at 10 µM (SK-MEL-2): < 10% | inhibition of growth at 10 µM (OVCAR-8): < 10% | zone of inhibition at 5000 µg/mL (Bacillus cereus): 5 mm | zone of inhibition at 5000 µg/mL (Escherichia coli): < 2 mm | inhibition of growth at 10 µM (HOP-62): < 10% | inhibition of growth at 10 µM (MOLT-4): < 10% | inhibition of growth at 10 µM (PC-3): 11.4% | inhibition of growth at 10 µM [2]: < 10% | inhibition of growth at 10 µM (OVCAR-4): < 10% | inhibition of growth at 10 µM (A549): < 10%

N#Cc1cnc2sc(S(N)(=O)=O)nn2c1=O
inhibition of growth at 10 µM (K562): < 10% | inhibition of growth at 10 µM (RPMI-8226): < 10% | inhibition of growth at 10 µM (IGROV-1): < 10% | inhibition of growth at 10 µM (SR): < 10% | inhibition of growth at 10 µM (SF-539): < 10% | inhibition of growth at 10 µM (M14): < 10% | inhibition of growth at 10 µM (SF-295): < 10% | inhibition of growth at 10 µM (UACC-62): < 10% | inhibition of growth at 10 µM (SK-MEL-28): < 10% | inhibition of growth at 10 µM (NCI-H226): < 10% | inhibition of growth at 10 µM (BT-549): < 10% | inhibition of growth at 10 µM (CCRF-CEM): < 10% | inhibition of growth at 10 µM (T47D): < 10% | inhibition of growth at 10 µM (786-0): < 10% | inhibition of growth at 10 µM (HT-29): < 10% | mortality at 24 h, 500 ug/mL [1]: 83.3% | inhibition of growth at 10 µM (HCT-116): < 10% | inhibition of growth at 10 µM (MDA-MB-468): < 10% | inhibition of growth at 10 µM (SK-MEL-5): < 10% | inhibition of growth at 10 µM (CAKI-1): < 10% | inhibition of growth at 10 µM (SK-MEL-2): < 10% | inhibition of growth at 10 µM (OVCAR-8): < 10% | zone of inhibition at 5000 µg/mL (Bacillus cereus): 2 mm | zone of inhibition at 5000 µg/mL (Escherichia coli): 5 mm | inhibition of growth at 10 µM (HOP-62): < 10% | inhibition of growth at 10 µM (MOLT-4): < 10% | inhibition of growth at 10 µM (PC-3): < 10% | inhibition of growth at 10 µM [2]: < 10% | inhibition of growth at 10 µM (OVCAR-4): < 10% | inhibition of growth at 10 µM (A549): < 10%

N#Cc1cnc2sc(S(N)(=O)=O)nn2c1=N
inhibition of growth at 10 µM (K562): < 10% | inhibition of growth at 10 µM (RPMI-8226): < 10% | inhibition of growth at 10 µM (IGROV-1): < 10% | inhibition of growth at 10 µM (SR): < 10% | inhibition of growth at 10 µM (SF-539): < 10% | inhibition of growth at 10 µM (M14): < 10% | inhibition of growth at 10 µM (SF-295): < 10% | inhibition of growth at 10 µM (UACC-62): < 10% | inhibition of growth at 10 µM (SK-MEL-28): < 10% | inhibition of growth at 10 µM (NCI-H226): < 10% | inhibition of growth at 10 µM (BT-549): < 10% | inhibition of growth at 10 µM (CCRF-CEM): < 10% | inhibition of growth at 10 µM (T47D): < 10% | inhibition of growth at 10 µM (786-0): < 10% | inhibition of growth at 10 µM (HT-29): < 10% | mortality at 24 h, 500 ug/mL [1]: 90% | inhibition of growth at 10 µM (HCT-116): < 10% | inhibition of growth at 10 µM (MDA-MB-468): < 10% | inhibition of growth at 10 µM (SK-MEL-5): < 10% | inhibition of growth at 10 µM (CAKI-1): 11.5% | inhibition of growth at 10 µM (SK-MEL-2): < 10% | inhibition of growth at 10 µM (OVCAR-8): < 10% | zone of inhibition at 5000 µg/mL (Bacillus cereus): < 2 mm | zone of inhibition at 5000 µg/mL (Escherichia coli): < 2 mm | inhibition of growth at 10 µM (HOP-62): 10.7% | inhibition of growth at 10 µM (MOLT-4): < 10% | inhibition of growth at 10 µM (PC-3): < 10% | inhibition of growth at 10 µM [2]: < 10% | inhibition of growth at 10 µM (OVCAR-4): < 10% | inhibition of growth at 10 µM (A549): < 10%
